Patent publication US12083093B2, “Composition for preventing or treating cellular senescence-related diseases comprising salinomycin as effective component” (RESEARCH COOPERATION FOUNDATION OF YEUNGNAM UNIVERSITY, priority 2018, dated 2024)

How the values were obtained:
[1] = test system: replicative senescent human fibroblasts (HDF); test: Western blot of p53 and p16, replicative senescent human fibroblasts; format: cell-based; details: FIG. 2C
Protocol: (§1) After dispensing 2×10^5 cells in a 100 mm culture dish, they were cultured in a 37° C., 5% CO2 incubator. When the cells grew to 80-90% in the culture dish, the cells were removed by treatment with trypsin-EDTA, and the number of cells was measured, and the cell population doubling time (PDT) was measured.
(§2) By successively subculturing the cells in the same process as described above, replication aging was induced. PDT of young fibroblasts was 36 hours, PDT of replicative senescent fibroblasts was 12 days, PDT of young vascular endothelial cells was 24 hours, and PDT of replicative senescent vascular endothelial cells was 7 days.
After dispensing the cells into a 60 mm culture dish, the cells were cultured overnight in an incubator at 37° C. and 5% CO2. After treatment with salinomycin, ABT263 and rapamycin, it was incubated for 3 days in a 37° C., 5% CO2 incubator. […]
The lysed cells were transferred to a 1.5 ml tube, pipetted 3-4 times, and then left on ice for 20 minutes. After centrifugation at 12,000 rpm for 20 minutes to recover the supernatant, the protein concentration of the supernatant was quantified by BCA analysis. […]

[2] = test system: premature senescent vascular endothelial cells (HUVEC) by doxorubicin; test: SAβG activity staining, doxorubicin-induced premature senescent HUVEC; format: cell-based, human; details: 100 nM, 4 days; compared to DMSO-treated group; p<0.01; FIG. 3A, 3B
Protocol: (§3) Each cell was treated in a serum-free culture solution containing doxorubicin (0.5 μM) for 4 hours. After washing the cells with a serum-free culture solution, the cells were cultured for 4 days in a culture solution containing 10% FBS, and then cellular aging was confirmed by measuring the level of senescence by staining with senescence-associated beta galactosidase.
(§4) After each sample was dissolved in DMSO, young cells, replicative senescent cells and senescent cells in which premature aging was induced by treating with doxorubicin were treated with 100 nM salinomycin, 100 nM rapamycin, 100 nM ABT263. After incubation for 4 days in a 37° C., 5% CO2 incubator, the degree of cell survival was confirmed by CCK-8 analysis, the degree of cellular aging was confirmed by senescence-associated β-galactosidase (SAβG) staining, p53 and p16 protein expression analysis.
(§5) The cells were washed with 1× phosphate buffer solution, and fixed with a phosphate buffer solution containing 3.7% (v/v) paraformaldehyde. After adding 1 mg/ml 5-bromo-4-chloro-3-indolyl-β-D-galactoside, 40 mM citric acid-sodium phosphate (pH 6.0), 5 mM potassium ferricyanide, 5 mM potassium ferrocyanide, 150 mM NaCl, and 2 mM MgCl2 solution, it was reacted at 37° C. for 18 hours. It was stained with eosin as a control stain and cells stained blue in the cytoplasm were identified using an optical microscope. […]

[3] = test system: replicative senescent human fibroblasts (HDF); test: CCK-8 cell survival, replicative senescent human fibroblasts; format: cell-based; details: replicative senescent cells, increasing concentration of salinomycin; FIG. 2A, 2D
Protocol: as §1, §2
(§6) After each sample was dissolved in DMSO, young cells, replicative senescent cells and senescent cells in which premature aging was induced by treating with doxorubicin were treated with 100 nM salinomycin, 100 nM rapamycin, 100 nM ABT263. […]
(§7) Young cells (1×10^3 cells/well) or senescent cells (2×10^3 cells/well) were dispensed into a 96-well plate, and cultured overnight in a 37° C., 5% CO2 incubator. […] Then, the absorbance was measured at 450 nm using a Microplate reader.
(§8) The degree of cell survival was expressed as a relative value for the absorbance of the control group treated with only DMSO as 100%.

[4] = test system: premature senescent human fibroblasts induced by doxorubicin (HDF); test: SAβG activity staining, doxorubicin-induced premature senescent human fibroblasts; format: cell-based; details: 100 nM, 4 days; compared to DMSO-treated group; FIG. 1A, 1B
Protocol: as §3, §4, §5

[5] = test system: premature senescent vascular endothelial cells (HUVEC) by doxorubicin; test: CCK-8 cell survival, doxorubicin-induced premature senescent HUVEC; format: cell-based, human; details: 100 nM, 4 days; compared to DMSO-treated group; FIG. 3C
Protocol: as §3, §4
Young cells (1×10^3 cells/well) or senescent cells (2×10^3 cells/well) were dispensed into a 96-well plate, and cultured overnight in a 37° C., 5% CO2 incubator. Salinomycin, ABT263 and rapamycin were treated at each concentration, and then incubated for 4 days in a 37° C., 5% CO2 incubator. […] Then, the absorbance was measured at 450 nm using a Microplate reader.
The degree of cell survival was expressed as a relative value for the absorbance of the control group treated with only DMSO as 100%. […]

[6] = test system: replicative senescent vascular endothelial cells (HUVEC); test: CCK-8 cell survival, replicative senescent HUVEC; format: cell-based, human; details: according to concentration of salinomycin; FIG. 4C
Protocol: as §1, §2, §6, §7, §8

Compound: CC[C@@H](C(=O)[C@@H](C)[C@@H](O)[C@H](C)[C@@H]1O[C@@H]([C@@H](CC)C(=O)O)CC[C@@H]1C)[C@H]1O[C@]2(C=C[C@@H](O)[C@]3(CC[C@@](C)([C@H]4CC[C@](O)(CC)[C@H](C)O4)O3)O2)[C@H](C)C[C@@H]1C [salinomycin]
- expression of p16 protein (Western blot) [1]: reduced
- expression of p53 protein (Western blot) [1]: reduced
- SAβG activity staining [2]: significantly decreased
- cell survival (CCK-8) [3]: no change
- SAβG activity [4]: significantly reduced
- cell survival (CCK-8) [5]: no difference
- cell survival (CCK-8) [6]: did not affect
